The results in this text go back to patent US20060089340A1, “Novel steroids and steroid mimetics; method for their production; and use thereof” (priority 2003, published 2006).

A word on the melting point: it is the temperature, or range, at which the solid turns liquid.

In the case of `COc1ccc2c(c1)CC[C@@H]1[C@@H]2CC[C@]2(C)[C@@H](O)C[C@@H](O)[C@]12F`, the melting point lay within 188 to 191 °C.
